Structures can show the parent of a compound that is named as a salt.
Tests used:
[1] = test system: visceral preadipocytes (VAC); experiment: observation of cell morphology (VAC), fat accumulation and reaction to NE; type: cell-based, rat; conditions: NE 1×10^−6 M, 6 hours on last day
Description: (§1) Using 4 types of rat primary preadipocytes (visceral fat, […], subcutaneous white fat and brown fat), the fat accumulation-suppressing effect and fat-releasing effect by the composition of the present invention were preliminarily studied in vitro. […] The test of the adrenergic β3 receptor binding activity was carried out by the above-mentioned method. The Preadipocyte Culture kit H-3 with 3 types of cells (primary, rat, Primary Cell Co., Ltd.: visceral preadipocytes (hereinafter referred to as VAC), Lot No. FIHA-FV; subcutaneous white preadipocytes (hereinafter referred to as […] preadipocytes (hereinafter referred to as EAC), FIHA-FE) and the Brown Adipocyte Culture kit F-8 (primary, rat, Primary Cell Co., Ltd.: Lot No. HDOA-1) were used. The 3 types of preadipocytes (visceral fat, […] subcutaneous white fat) were seeded into 12 wells in a 24-well plate at a cell number of 1.5×10^6 (1.2×10^5 cells/mL/well), followed by preculture for 4 days in the adipocyte differentiation medium. Thereafter (on day 4 after seeding), the negative control substance and the test substance were prepared to a predetermined concentration in a visceral fat differentiation medium, and the prepared medium was added to the cells. The medium was replaced on days 0, 2 and 4 after the addition of the test substance (days 4, 6 and 8 after seeding), while adding freshly prepared medium after the collection. […]

brown adipocytes (BAT) = experiment: observation of cell morphology (BAT), fat accumulation and reaction to NE; type: cell-based, rat; conditions: 1 hour on last day
Description: Using 4 types of rat primary preadipocytes (visceral fat, […], subcutaneous white fat and brown fat), the fat accumulation-suppressing effect and fat-releasing effect by the composition of the present invention were preliminarily studied in vitro. […] The test of the adrenergic β3 receptor binding activity was carried out by the above-mentioned method. The Preadipocyte Culture kit H-3 with 3 types of cells (primary, rat, Primary Cell Co., Ltd.: visceral preadipocytes (hereinafter referred to as VAC), Lot No. FIHA-FV; subcutaneous white preadipocytes (hereinafter referred to as […] preadipocytes (hereinafter referred to as EAC), FIHA-FE) and the Brown Adipocyte Culture kit F-8 (primary, rat, Primary Cell Co., Ltd.: Lot No. HDOA-1) were used. Cells seeded on a 24-well plate were cultured in a growth medium for 3 days, and the cells were confirmed to have become confluent. After replacing the medium with a differentiation induction medium, the culture was continued for 2 days, and the negative control substance and the test substance were prepared to a predetermined concentration with a maintenance medium, followed by addition of the prepared medium and 4 days of culture. The treatment with NE was carried out in the same manner as in VAC, using the maintenance medium. […]

[2] = test system: subcutaneous white preadipocytes (SAC); experiment: observation of cell morphology (SAC), fat accumulation and reaction to NE; type: cell-based, rat; conditions: NE 1×10^−6 M, 6 hours on last day
Description: as §1

[3] = test system: periepididymal preadipocytes (EAC); experiment: observation of cell morphology (EAC), fat accumulation and reaction to NE; type: cell-based, rat; conditions: NE 1×10^−6 M, 6 hours on last day
Description: as §1

[4] = molecular target: T1, human recombinant adrenergic β3 receptor (Homo sapiens, UniProt P13945); experiment: adrenergic β3 receptor binding activity ([125I]cyanopindolol); conditions: HEK-293 cells, 0.5 nM [125I]cyanopindolol, Tris buffer pH 7.4, 25° C., 90 minutes
T1 construct: expressed in transfected cells; host or cells: HEK-293 cells
Description: The adrenergic β3 receptor binding activity can be measured according to, for example, the method described in Cell Biology: Feve et al, Proc. Natl. Acad. Sci. USA 91 (1994), Vol. 91, pp. 5677-5681, using HEK-293 cells which express a human recombinant adrenergic β3 receptor. That is, a solution of a sample in 1% DMSO, and 0.5 nM [^125I]cyanopindolol are added to Tris buffer (pH 7.4), and the HEK-293 cells are cultured therein at 25° C. for 90 minutes, followed by filtration and washing of the cells, and measurement of the radioactivity of the adrenergic β3 receptor binding ligand.
Each component containing the components shown in Table 1 below was dissolved in DMSO to 1 w/v %, and the resulting solution was added to an adipocyte differentiation medium (Primary Cell Co., Ltd., Lot No. 080411) to a final concentration of 10 μg/mL before use. The test of the adrenergic β3 receptor binding activity was carried out by the above-mentioned method.

T1 sequence (P13945 whole entry): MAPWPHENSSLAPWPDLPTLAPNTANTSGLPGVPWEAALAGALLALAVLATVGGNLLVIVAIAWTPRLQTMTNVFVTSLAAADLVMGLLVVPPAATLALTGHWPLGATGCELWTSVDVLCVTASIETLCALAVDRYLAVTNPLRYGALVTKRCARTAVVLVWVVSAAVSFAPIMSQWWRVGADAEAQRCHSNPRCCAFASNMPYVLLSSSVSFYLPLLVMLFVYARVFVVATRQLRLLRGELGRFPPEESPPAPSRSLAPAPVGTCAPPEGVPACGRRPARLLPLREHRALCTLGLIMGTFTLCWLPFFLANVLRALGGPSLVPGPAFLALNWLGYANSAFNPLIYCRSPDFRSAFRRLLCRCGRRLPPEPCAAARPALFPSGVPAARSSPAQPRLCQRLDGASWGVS

Binding activity (%) [4] | SMILES | reaction by treatment with NE (morphology) [1] | reaction by 1 hour of treatment with NE (morphology) (brown adipocytes (BAT)) | reaction by the addition of NE (morphology) [2] | reaction by the addition of NE (morphology) [3]
– | NC[C@H](O)c1ccc(O)c(O)c1 [NE, (−)-Norepinephrine(+)-bitartrate salt hydrate] | reaction by 6 hours of the treatment with NE was obtained | sufficiently confirmed | reaction by the addition of NE was obtained | reaction by the addition of NE was obtained
22% | CC/C=C\C/C=C\C/C=C\CCCCCCCC(=O)O [compound 7, C18:3α] | – | – | – | –

Reference: patent US20110098358A1, “HUMAN BETA3 ADRENERGIC RECEPTOR LIGAND, AND FOOD OR PHARMACEUTICAL PRODUCT CONTAINING THE SAME” (RICOM CORPORATION, priority 2008, published 2011)
